Test results: PMC4907692, “Engineering vanilloid-sensitivity into the rat TRPV2 channel” (eLife, 2016)
Read-outs that look alike come from different tables or passages of the source.

Key:
[1] = molecular target: T1, full-length GFP-tagged TRPV1 (Rattus norvegicus, UniProt O35433); assay: 3H-RTx binding to intact S. cerevisiae cells expressing GFP-tagged TRPV1; conditions: 37°C; for Kd: read-out: Kd of 3H-RTx binding (Hill fit)
T1 construct: Smooth function for full-length GFP-tagged TRPV1 is a fit of the Hill equation; expressed in transfected cells; host or cells: Saccharomyces cerevisiae (intact cells)
Experimental: To evaluate whether these constructs were competent to bind vanilloids, we initially measured the binding of [^3H]-RTx ([Szallasi and Blumberg, 1999]; [Szallasi et al., 1999]) to intact yeast cells expressing each of the constructs.
S. cerevisiae cells overexpressing TRPV1 constructs to be used in ligand binding assays on intact cells (Figure 1E,F) were grown as for small scale expression trials. 24 hr after protein induction cells were spun down at 4000g, the supernatant was removed and the pellet resuspended in 1x PBS, normalizing OD600 to 75 for each sample, and aliquoted for storage at -80°C. ^3H-RTx binding assays on cells were performed at 37°C as previously described ([Feng et al., 2015]), but where non-specific binding of RTx was measured using cells expressing GFP alone. The binding of RTx to TRPV1 and TRPV2 in membranes (e.g. Figure 2A,B and 5C) was performed at 37°C unless otherwise stated using membranes prepared from large scale protein preparations of S. cerevisiae containing rat TRPV1 and TRPV2 with a 1D4 tag expressed using a constitutive promoter as in [Moiseenkova-Bell et al., 2008]. Data for binding of RTx to membranes was corrected for non-specific binding, determined using either excess non-radioactive ligand or heat inactivation of the protein, as previously described ([Feng et al., 2015]). The TRPV1-activating double-knot toxin (DkTx) was produced recombinantly, folded in vitro and purified as previously described ([Bae et al., 2012]). Yeast membranes were incubated with DkTx solution for 1 hr at 4°C with gentle agitation prior to undertaking RTx binding assays.

1D4-tagged WT TRPV2 = molecular target: T2, 1D4-tagged WT TRPV2 (Rattus norvegicus, UniProt Q9WUD2); assay: 3H-RTx binding to yeast membranes containing 1D4-tagged WT TRPV2
T2 construct: made in house; host or cells: S. cerevisiae BJ5457, isolated membranes
T2 sequence (Q9WUD2 1-761): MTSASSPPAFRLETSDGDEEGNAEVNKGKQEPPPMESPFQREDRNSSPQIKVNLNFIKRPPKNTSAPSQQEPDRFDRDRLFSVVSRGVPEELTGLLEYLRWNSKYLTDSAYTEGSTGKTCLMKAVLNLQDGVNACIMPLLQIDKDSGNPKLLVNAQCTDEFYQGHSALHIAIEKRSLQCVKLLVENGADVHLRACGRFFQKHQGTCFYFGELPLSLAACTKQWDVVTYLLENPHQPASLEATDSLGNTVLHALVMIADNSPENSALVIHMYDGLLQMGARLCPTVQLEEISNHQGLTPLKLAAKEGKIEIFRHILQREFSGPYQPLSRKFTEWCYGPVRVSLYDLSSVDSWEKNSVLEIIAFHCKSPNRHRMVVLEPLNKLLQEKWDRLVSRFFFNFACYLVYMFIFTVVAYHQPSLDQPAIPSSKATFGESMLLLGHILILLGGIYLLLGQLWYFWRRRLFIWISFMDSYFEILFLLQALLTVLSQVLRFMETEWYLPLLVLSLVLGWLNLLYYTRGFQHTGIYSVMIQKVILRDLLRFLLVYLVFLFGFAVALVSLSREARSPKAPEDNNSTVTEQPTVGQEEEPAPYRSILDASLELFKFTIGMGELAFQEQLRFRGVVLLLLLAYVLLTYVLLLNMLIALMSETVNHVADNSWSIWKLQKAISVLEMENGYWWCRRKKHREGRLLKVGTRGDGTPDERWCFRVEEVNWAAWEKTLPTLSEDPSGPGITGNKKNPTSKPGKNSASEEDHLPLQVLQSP
From the text: To examine the strength of RTx binding to the TRPV2 channel, we undertook binding assays after expressing 1D4-tagged TRPV2 and TRPV2 QM in S. cerevisiae and isolating yeast membranes, similar to the experiments described above with TRPV1 (Figure 2). […] To examine the relative importance of the four residues for mediating RTx sensitivity in the TRPV2 QM, we constructed triple mutants and evaluated their sensitivity to RTx electrophysiologically.
The full-length TRPV1 and TRPV2 channels with 1D4 affinity tags ([…]) on their C-termini were cloned into the YEpHIS vector and expressed in the BJ5457 strain of S. cerevisiae using the strong constitutively active PMA1 promoter, as previously described ([Moiseenkova-Bell et al., 2008]). After 48 hr of expression at 30°C in YPD media, cells were harvested by centrifugation and re-suspended in PBS buffer, supplemented with complete protease inhibitor cocktail (Roche, Indianapolis, IN) and 4-amidinophenylmethanesulfonyl fluoride hydrochloride (APMSF) (Sigma-Aldrich, St. Louis, MO). Cells were broken by passing through an Avestin homogenizer at the pressure of 35 kpsi, cell lysate was cleared by centrifugation at 8,000 g for 15 min and membranes were isolated by ultracentrifugation at 190,000 g for 1 hr. […]
S. cerevisiae cells overexpressing TRPV1 constructs to be used in ligand binding assays on intact cells (Figure 1E,F) were grown as for small scale expression trials. 24 hr after protein induction cells were spun down at 4000g, the supernatant was removed and the pellet resuspended in 1x PBS, normalizing OD600 to 75 for each sample, and aliquoted for storage at -80°C. ^3H-RTx binding assays on cells were performed at 37°C as previously described ([Feng et al., 2015]), but where non-specific binding of RTx was measured using cells expressing GFP alone. […] Data for binding of RTx to membranes was corrected for non-specific binding, determined using either excess non-radioactive ligand or heat inactivation of the protein, as previously described ([Feng et al., 2015]). […]

T1 sequence (O35433 whole entry): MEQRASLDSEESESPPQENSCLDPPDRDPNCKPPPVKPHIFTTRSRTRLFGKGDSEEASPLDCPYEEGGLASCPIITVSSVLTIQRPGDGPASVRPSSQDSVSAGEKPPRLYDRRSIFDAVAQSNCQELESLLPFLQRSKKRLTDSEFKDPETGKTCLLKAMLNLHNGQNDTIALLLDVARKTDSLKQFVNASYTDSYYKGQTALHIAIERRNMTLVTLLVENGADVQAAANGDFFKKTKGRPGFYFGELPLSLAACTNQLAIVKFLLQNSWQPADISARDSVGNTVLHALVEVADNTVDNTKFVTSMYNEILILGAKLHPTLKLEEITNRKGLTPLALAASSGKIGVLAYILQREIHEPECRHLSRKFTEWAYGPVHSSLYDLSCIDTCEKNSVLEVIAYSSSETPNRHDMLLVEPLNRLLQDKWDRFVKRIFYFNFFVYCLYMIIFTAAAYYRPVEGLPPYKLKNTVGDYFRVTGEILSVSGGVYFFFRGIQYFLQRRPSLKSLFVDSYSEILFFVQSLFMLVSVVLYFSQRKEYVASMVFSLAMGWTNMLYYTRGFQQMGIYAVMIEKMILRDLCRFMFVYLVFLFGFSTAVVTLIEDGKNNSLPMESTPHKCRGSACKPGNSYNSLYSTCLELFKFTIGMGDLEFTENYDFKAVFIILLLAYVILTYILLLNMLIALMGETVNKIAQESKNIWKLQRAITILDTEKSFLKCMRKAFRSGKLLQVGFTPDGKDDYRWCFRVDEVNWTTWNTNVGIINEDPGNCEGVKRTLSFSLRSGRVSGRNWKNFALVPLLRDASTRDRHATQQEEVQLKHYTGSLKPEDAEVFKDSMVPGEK

## C=C(C)[C@]12C[C@@H](C)[C@@]34O[C@](Cc5ccccc5)(O[C@@H]1[C@@H]3C=C(COC(=O)Cc1ccc(O)c(OC)c1)C[C@]1(O)C(=O)C(C)=C[C@@H]41)O2 [RTx, resiniferatoxin]
[1]; Figure 1E
  Hill slope (nH): 0.78
  Kd: 7 nM
[1]; Figure 1F
  Hill slope (nH): 0.82
  Kd: 7.2 nM
1D4-tagged WT TRPV2
  RTx binding in words: weak binding
1D4-tagged WT TRPV2; 37°C
  Hill slope (nH): 0.9
1D4-tagged WT TRPV2; 37°C, read-out: Kd of 3H-RTx binding (Hill fit)
  Kd: > 200 nM
